The source made the active and inactive calls.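 The calls were made as follows: active = mean IC50 for reducing PEG3 promoter reporter signal at or below a set limit, with IC50 above the limit in both counter screens; inactive = the rest, including counter screen hits.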
Legend:
[1] = target: PEG-3 (UniProt Q6IN02); test: Peg3 promoter luciferase inhibitors, potency, dose response, cell-based, HeLa, CREF/GAPDH counter-screen panel (AID 624167); conditions: HeLa PEG-Prom luciferase reporter, overnight, CREF/GAPDH counter-screens, mean of runs
[2] = as above; conditions: CREF/GAPDH counter-screens; GAPDH; mean of runs
[3] = tested on: PEG-3; test: as above; conditions: HeLa PEG-Prom luciferase reporter, overnight, CREF/GAPDH counter-screens
[4] = tested on: GAPDH; test: as above; conditions: CREF/GAPDH counter-screens
[5] = tested on: Rat fibroblasts (CREF); test: as above; conditions: CREF/GAPDH counter-screens
[6] = run 1, dose range 1, individual replicate IC50 per panel
[7] = run 2, dose range 1, individual replicate IC50 per panel

Sequence of PEG-3 (UniProt Q6IN02) (Q6IN02 whole entry, looked up): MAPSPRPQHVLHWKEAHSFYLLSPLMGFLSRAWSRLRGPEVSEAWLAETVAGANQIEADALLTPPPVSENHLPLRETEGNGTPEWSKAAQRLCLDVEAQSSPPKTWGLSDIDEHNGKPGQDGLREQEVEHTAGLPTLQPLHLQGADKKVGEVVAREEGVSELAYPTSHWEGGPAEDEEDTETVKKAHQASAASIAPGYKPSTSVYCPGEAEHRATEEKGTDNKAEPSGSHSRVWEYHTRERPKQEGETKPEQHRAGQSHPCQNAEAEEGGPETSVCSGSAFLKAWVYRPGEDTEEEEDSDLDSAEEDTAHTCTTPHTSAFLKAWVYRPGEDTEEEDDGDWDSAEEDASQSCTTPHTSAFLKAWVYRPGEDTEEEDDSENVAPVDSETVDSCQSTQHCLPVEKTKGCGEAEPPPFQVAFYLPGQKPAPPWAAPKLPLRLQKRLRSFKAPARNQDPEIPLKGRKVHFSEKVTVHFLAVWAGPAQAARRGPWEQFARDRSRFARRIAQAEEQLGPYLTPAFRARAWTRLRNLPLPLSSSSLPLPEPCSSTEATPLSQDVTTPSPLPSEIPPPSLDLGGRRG

| SMILES | IC50 [1] | IC50 [2] | IC50 [3, 6] [µM] | IC50 [3, 7] [µM] | IC50 [4, 6] [µM] | IC50 [4, 7] [µM] | IC50 ([5]; mean of runs) | IC50 [5, 6] [µM] | IC50 [5, 7] [µM] |
| --- | --- | --- | --- | --- | --- | --- | --- | --- | --- |
| O=C(N/N=C/c1ccc(Cl)c([N+](=O)[O-])c1)c1cc(-c2ccc3c4c(cccc24)CC3)n[nH]1 | 8.14 µM | 23 µM | 11.2 | 5.1 | 22.8 | 23.2 | > 100 µM (inactive) | > 100 | > 100 |
| Cc1ccc(NC(=S)NC(=O)c2ccc(F)cc2)cc1S(=O)(=O)Nc1ccccc1Cl | 3.86 µM | inactive | 4.15 | 3.56 | 44.2 | 41 | 50.7 µM (inactive) | > 100 | 1.35 |
| O=C(CNC(=O)C(c1ccccc1)c1ccccc1)N/N=C/c1ccc(O)cc1O | inactive | > 100 µM (inactive) | 3.59 | > 100 | > 100 | > 100 | > 100 µM (inactive) | > 100 | > 100 |
| O=C(NNC(=O)c1cccnc1SCc1cccc([N+](=O)[O-])c1)c1ccccn1 | 3.6 µM | > 100 µM (inactive) | 2.76 | 4.45 | > 100 | > 100 | 31.4 µM | 5.66 | 57.1 |
| CC(=O)c1sc2c(c1OC(=O)c1ccc(Cl)cc1Cl)c(=O)n(-c1ccccc1)c(=S)n2-c1ccccc1 | 10.2 µM | 4.7 µM | 11.2 | 9.26 | 2.85 | 6.56 | > 100 µM (inactive) | > 100 | > 100 |
| O=C(N/N=C/c1c(O)ccc2ccccc12)c1ccc(CO)nc1 | 3.35 µM | > 100 µM (inactive) | 3.98 | 2.72 | > 100 | > 100 | 41.7 µM | 31 | 52.5 |
| O=C(N/N=C\c1c(O)ccc2ccccc12)c1cncc(Br)c1 | 0.512 µM | inactive | 0.52 | 0.504 | 40.3 | 69.7 | 9.73 µM | 2.43 | 17 |
| Cc1ccc(/C=C2\SC(=S)N(CCCC(=O)Nc3ccccn3)C2=O)cc1 | 1.9 µM | 12.8 µM | 1.33 | 2.48 | 17.7 | 7.78 | > 100 µM (inactive) | > 100 | > 100 |
| NC(C(=O)O)C1ON=C(Cl)C1O (stereo not drawn) | 0.703 µM | 2.86 µM | 0.639 | 0.767 | 0.927 | 4.8 | > 100 µM (inactive) | > 100 | > 100 |
| Cc1ccc(OCC(=O)c2cc(C)n(-c3ccccc3)c2C)c([N+](=O)[O-])n1 | inactive | 5.5 µM | 0.686 | > 100 | 2.62 | 8.38 | > 100 µM (inactive) | > 100 | > 100 |
| CC(=O)c1ccc(-c2cnc3c(NC=O)cc(-c4ccccc4Oc4ccccc4)cn23)cc1 | 7.2 µM | inactive | 5.46 | 8.94 | 91.1 | > 100 | 54.5 µM (inactive) | > 100 | 8.93 |
| CCOc1cccc(/C=N/NC(=S)Nc2cc(S(=O)(=O)N3CCOCC3)ccc2N2CCOCC2)c1O | 17.3 µM | > 100 µM (inactive) | 9.08 | 25.5 | > 100 | > 100 | 72.8 µM (inactive) | > 100 | 72.8 |

Source: PubChem BioAssay AID624167 (Sanford-Burnham Center for Chemical Genomics, 2012)
